Reference: patent US20170049100A1 (priority 2014, published 2017)
≈ marks a conversion by molar mass, not a printed value.

System: resistant strain of Pythium sp.
Assay: In vitro sensitivity of a resistant strain of Pythium sp. (mycelium growth, optical density at 590 nm)
Format: cell-based
Conditions: 168 h, 500 spores/mL, 7 days at 20° C., read-out: EC50 (effective concentration of the active ingredient which reduces the growth of the phytopathogen by 50%)

`CCCCCCCCO` [octanol, octan-1-ol] gave an EC50 of 1.3 ng/mL (≈ 9.98 nM).
